Laboratory results: patent publication US12065443B2, “Compounds and pharmaceutical compositions thereof for the treatment of diseases” (priority 2017, dated 2024)
Read-outs that look alike come from different tables or passages of the source.

Tests used:
Assay in all cases: biochemical
SIK1 [1] = target: T1, SIK1 (Homo sapiens, UniProt P57059); conditions: 33P radioactive SIK kinase assay, AMARA peptide, 10 μM ATP; read-out: SIK1 IC50
T1 construct: purchased Carna Biosciences 02-131
Procedure, shortened: (§1)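 AMARA peptide phosphorylation by SIK1–3 is quantified through ^33P uptake from a labeled/unlabeled ATP blend. Staurosporine at 10 μM final defines full inhibition, 1% DMSO the uninhibited signal. Quench uses phosphoric acid; counting follows filter capture.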

SIK3 [2] = target: T2, SIK3 (Homo sapiens, UniProt Q9Y2K2)
T2 construct: purchased SignalChem S12-11G-100
T2 sequence (Q9Y2K2 whole entry): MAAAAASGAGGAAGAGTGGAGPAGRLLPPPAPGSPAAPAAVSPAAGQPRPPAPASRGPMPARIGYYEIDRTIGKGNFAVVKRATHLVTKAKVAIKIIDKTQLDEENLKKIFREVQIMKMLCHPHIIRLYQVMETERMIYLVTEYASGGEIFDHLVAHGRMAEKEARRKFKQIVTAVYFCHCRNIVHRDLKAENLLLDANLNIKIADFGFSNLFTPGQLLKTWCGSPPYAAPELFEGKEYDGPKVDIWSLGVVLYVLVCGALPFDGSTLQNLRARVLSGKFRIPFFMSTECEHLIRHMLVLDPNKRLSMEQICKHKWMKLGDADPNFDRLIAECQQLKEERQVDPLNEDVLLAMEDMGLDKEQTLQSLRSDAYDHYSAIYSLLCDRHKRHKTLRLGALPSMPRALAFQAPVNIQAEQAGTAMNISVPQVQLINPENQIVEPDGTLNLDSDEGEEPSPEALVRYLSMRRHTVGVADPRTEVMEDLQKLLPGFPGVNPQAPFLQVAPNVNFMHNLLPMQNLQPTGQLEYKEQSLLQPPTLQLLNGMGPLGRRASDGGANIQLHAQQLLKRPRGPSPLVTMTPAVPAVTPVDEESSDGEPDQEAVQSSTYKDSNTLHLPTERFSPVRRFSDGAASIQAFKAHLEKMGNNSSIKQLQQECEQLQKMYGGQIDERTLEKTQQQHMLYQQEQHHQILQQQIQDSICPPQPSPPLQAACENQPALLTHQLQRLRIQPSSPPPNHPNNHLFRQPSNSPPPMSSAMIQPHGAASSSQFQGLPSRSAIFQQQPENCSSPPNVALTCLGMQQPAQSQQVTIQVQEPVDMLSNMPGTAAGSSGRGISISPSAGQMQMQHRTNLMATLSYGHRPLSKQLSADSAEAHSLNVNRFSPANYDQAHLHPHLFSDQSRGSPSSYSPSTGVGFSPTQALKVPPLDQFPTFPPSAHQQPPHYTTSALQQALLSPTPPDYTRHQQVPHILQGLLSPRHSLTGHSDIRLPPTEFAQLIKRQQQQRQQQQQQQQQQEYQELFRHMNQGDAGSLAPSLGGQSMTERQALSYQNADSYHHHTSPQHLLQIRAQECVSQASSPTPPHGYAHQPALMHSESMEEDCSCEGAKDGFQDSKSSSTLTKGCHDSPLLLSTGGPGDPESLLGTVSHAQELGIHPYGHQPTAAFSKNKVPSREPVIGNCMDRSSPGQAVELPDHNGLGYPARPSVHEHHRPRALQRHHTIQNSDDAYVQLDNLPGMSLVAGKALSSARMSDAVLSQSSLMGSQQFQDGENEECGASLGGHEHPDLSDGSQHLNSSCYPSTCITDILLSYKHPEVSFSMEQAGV
Procedure, shortened: as §1

SIK2 [3] = target: T3, SIK2 (Homo sapiens, UniProt Q9H0K1); conditions: 33P radioactive SIK kinase assay, AMARA peptide, 10 μM ATP
T3 construct: purchased ThermoFisher Scientific PV4792
T3 sequence (Q9H0K1 whole entry): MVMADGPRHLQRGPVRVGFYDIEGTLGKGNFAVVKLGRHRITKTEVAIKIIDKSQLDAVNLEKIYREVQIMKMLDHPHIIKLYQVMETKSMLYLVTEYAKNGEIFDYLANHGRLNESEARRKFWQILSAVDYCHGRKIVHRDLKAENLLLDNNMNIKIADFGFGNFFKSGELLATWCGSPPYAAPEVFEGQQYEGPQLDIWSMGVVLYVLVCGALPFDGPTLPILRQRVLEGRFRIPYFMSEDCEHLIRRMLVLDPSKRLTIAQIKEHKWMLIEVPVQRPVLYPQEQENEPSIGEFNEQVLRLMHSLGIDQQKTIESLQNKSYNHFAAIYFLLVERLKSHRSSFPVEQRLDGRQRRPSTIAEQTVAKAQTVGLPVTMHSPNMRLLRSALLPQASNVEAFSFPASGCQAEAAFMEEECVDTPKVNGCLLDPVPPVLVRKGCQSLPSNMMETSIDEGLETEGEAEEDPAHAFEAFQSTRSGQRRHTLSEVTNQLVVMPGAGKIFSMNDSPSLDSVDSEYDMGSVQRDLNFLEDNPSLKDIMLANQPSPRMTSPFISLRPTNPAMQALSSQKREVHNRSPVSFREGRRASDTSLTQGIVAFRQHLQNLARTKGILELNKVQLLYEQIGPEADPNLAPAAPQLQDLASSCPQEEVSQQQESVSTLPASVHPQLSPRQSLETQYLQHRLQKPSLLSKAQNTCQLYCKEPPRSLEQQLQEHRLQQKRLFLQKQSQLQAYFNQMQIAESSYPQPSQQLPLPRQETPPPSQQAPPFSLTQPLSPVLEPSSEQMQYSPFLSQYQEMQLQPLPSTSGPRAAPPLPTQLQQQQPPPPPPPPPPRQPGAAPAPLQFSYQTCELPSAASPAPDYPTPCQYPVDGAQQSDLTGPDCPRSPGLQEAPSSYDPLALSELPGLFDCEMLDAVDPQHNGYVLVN
Procedure, shortened: as §1

SIK1 [4] = target: T1, SIK1; conditions: ADP-Glo SIK kinase assay
Experimental: (§2) The ADP-Glo™ kinase assay is a luminescent technology assay which measures the ADP formed from a kinase reaction. […] In a second step the kinase reactions are terminated and all the remaining ATP is depleted. In a final step the ADP is converted into ATP and this newly synthesized ATP is measured by using a luciferase/luciferin reaction. The generated light is measured using an Envision plate reader, wherein the luminescent signal obtained positively correlates with the kinase activity.
(§3) 1% DMSO and 10 μM staurosporine final concentrations are used as negative and positive controls.
(§4) 2 μL enzyme-substrate mixture is added to the assay plates.
(§5) The reaction is started by adding 2 μL diluted ATP on the assay plates. Plates are centrifuged for a few seconds at 1000 rpm and gently shaken for 2 min followed by an incubation at RT for 120 min.
(§6) The reactions are stopped and the unconsumed ATP is depleted by adding 5 μL ADP-Glo Reagent (Promega, Cat #V912B) to the reaction. The plates are centrifuged for a few seconds at 1000 rpm and incubated at RT for 40 min (ATP depletion).
(§7) The ADP is converted to ATP and luciferase and luciferin is introduced to detect ATP by adding 10 μL Kinase Detection Reagent (Promega, Cat #V913B+V914B) to the reaction. The plates are centrifuged for a few seconds at 1000 rpm and incubated at RT for 30 min (ADP detection).
(§8) Luminescence is measured on an Envision plate reader (PerkinElmer Inc.).

SIK3 [5] = target: T2, SIK3; conditions: ADP-Glo SIK kinase assay
Experimental: as §2, §3, §4, §5, §6, §7, §8

SIK2 [6] = target: T3, SIK2; conditions: ADP-Glo SIK kinase assay
Experimental: as §2, §3, §4, §5, §6, §7, §8

T1 sequence (P57059 whole entry): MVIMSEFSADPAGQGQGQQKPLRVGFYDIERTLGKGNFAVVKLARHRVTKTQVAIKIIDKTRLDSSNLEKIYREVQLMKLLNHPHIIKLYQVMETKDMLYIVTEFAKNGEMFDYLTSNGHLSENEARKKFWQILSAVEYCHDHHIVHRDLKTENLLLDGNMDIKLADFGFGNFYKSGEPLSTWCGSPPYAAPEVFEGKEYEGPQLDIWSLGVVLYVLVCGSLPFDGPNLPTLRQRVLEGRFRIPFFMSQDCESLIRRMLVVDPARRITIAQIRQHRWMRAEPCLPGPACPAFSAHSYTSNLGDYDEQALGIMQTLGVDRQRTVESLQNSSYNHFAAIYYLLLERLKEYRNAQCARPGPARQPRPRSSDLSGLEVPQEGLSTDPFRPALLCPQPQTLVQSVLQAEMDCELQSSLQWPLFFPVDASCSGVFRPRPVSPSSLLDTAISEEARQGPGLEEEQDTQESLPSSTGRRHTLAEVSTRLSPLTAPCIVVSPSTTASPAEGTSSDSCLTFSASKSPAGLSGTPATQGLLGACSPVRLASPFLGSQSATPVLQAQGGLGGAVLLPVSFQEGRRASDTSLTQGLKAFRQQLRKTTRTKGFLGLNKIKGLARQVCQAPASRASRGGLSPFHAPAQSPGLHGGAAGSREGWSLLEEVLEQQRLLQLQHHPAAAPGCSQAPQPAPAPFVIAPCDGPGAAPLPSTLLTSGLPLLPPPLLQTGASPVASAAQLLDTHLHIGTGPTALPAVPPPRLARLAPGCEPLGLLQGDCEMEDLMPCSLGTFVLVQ

IC50 (SIK1 [1]) [nM]	IC50 (SIK3 [2]) [nM]	IC50 (SIK2 [3]) [nM]	IC50 (SIK1 [4]) [nM]	IC50 (SIK3 [5]) [nM]	IC50 (SIK2 [6]) [nM]	Compound
> 500	100 to 500	100 to 500	> 500	100 to 500	100 to 500	CCN1Cc2cc(-n3cnc4cc(-c5cnn(C)c5)ccc43)cc(F)c2C1=O [Cpd 175, 2-ethyl-7-fluoro-5-[5-(1-methylpyrazol-4-yl)benzimidazol-1-yl]isoindolin-1-one]
100 to 500	> 500	100 to 500	100 to 500	100 to 500	100 to 500	CCN1Cc2cc(-n3cnc4cc(-c5cnn(C)c5)ccc43)cc(NCCO)c2C1=O [Cpd 202, 2-ethyl-7-(2-hydroxyethylamino)-5-[5-(1-methylpyrazol-4-yl)benzimidazol-1-yl]isoindolin-1-one]
> 500	100 to 500	> 500	> 500	10 to 100	> 500	COc1cc(-c2cnc3cc(-c4cnccc4C#N)ccn23)cc(OC)c1C(=O)NCC(F)(F)F [Cpd 258]
> 500	100 to 500	> 500	> 500	10 to 100	> 500	COc1cc(-c2cnc3cc(-c4cnccc4C(N)=O)ccn23)cc(OC)c1C(=O)NCC(F)(F)F [Cpd 259, 3-[3-[3,5-dimethoxy-4-(2,2,2-trifluoroethyl-carbamoyl)phenyl]imidazo[1,2-a]pyridin-7-yl]pyridine-4-carboxamide]
–	–	–	0.01 to 10	0.01 to 10	0.01 to 10	[2H]C([2H])([2H])Oc1cc(-c2cnc3cc(-c4cnn(C)c4)ccn23)cc(OC([2H])([2H])[2H])c1C(=O)NCC(F)(F)F [Cpd 266, 4-[7-(1-methylpyrazol-4-yl)imidazo[1,2-a]pyridin-3-yl]-2,6-bis(trideuterio-methoxy)-N-(2,2,2-trifluoroethyl)benzamide]
–	–	–	0.01 to 10	0.01 to 10	0.01 to 10	CCOC(=O)Cn1cc(-c2ccn3c(-c4cc(OC)c(C(=O)NC5CC5)c(OC(F)F)c4)cnc3c2)cn1 [Cpd 284, ethyl 2-[4-[3-[4-(cyclopropyl-carbamoyl)-3-(difluoromethoxy)-5-methoxy-phenyl]imidazo[1,2-a]pyridin-7-yl]pyrazol-1-yl]acetate]
–	–	–	10 to 100	10 to 100	0.01 to 10	COc1cc(-c2cnc3cc(-c4cnn(C)c4)c(OCc4ccccc4)cn23)cc(OC(F)F)c1C(=O)NC1CC1 [Cpd 300, 4-[6-benzyloxy-7-(1-methylpyrazol-4-yl)imidazo[1,2-a]pyridin-3-yl]-N-cyclopropyl-2-(difluoromethoxy)-6-methoxy-benzamide]
–	–	–	0.01 to 10	0.01 to 10	0.01 to 10	COc1cc(-c2cnc3cc(-c4cnn(C)c4)c(OC(C)C#N)cn23)cc(OC(F)F)c1C(=O)NC1CC1 (stereo not drawn) [Cpd 301, 4-[6-(1-cyanoethoxy)-7-(1-methylpyrazol-4-yl)imidazo[1,2-a]pyridin-3-yl]-N-cyclopropyl-2-(difluoromethoxy)-6-methoxy-benzamide]
–	–	–	10 to 100	10 to 100	10 to 100	CCOC(=O)C(C)Oc1cn2c(-c3cc(OC)c(C(=O)NC4CC4)c(OC(F)F)c3)cnc2cc1-c1cnn(C)c1 (stereo not drawn) [Cpd 302, ethyl 2-[3-[4-(cyclopropyl-carbamoyl)-3-(difluoromethoxy)-5-methoxy-phenyl]-7-(1-methylpyrazol-4-yl)imidazo[1,2-a]pyridin-6-yl]oxypropanoate]
–	–	–	10 to 100	10 to 100	10 to 100	COc1cc(-c2cnc3cc(-c4cnn(C)c4)c(OC(C)C(=O)O)cn23)cc(OC(F)F)c1C(=O)NC1CC1 (stereo not drawn) [Cpd 303, 2-[3-[4-(cyclopropyl-carbamoyl)-3-(difluoromethoxy)-5-methoxy-phenyl]-7-(1-methylpyrazol-4-yl)imidazo[1,2-a]pyridin-6-yl]oxypropanoic acid]
–	–	–	0.01 to 10	0.01 to 10	10 to 100	COc1cc(-c2cnc3cc(-c4cnn(C(C)(C)C(=O)O)c4)ccn23)cc(OC)c1C(=O)NCC(F)(F)F [Cpd 304, 2-[4-[3-[3,5-dimethoxy-4-(2,2,2-trifluoroethyl-carbamoyl)phenyl]imidazo[1,2-a]pyridin-7-yl]pyrazol-1-yl]-2-methyl-propanoic acid]
–	–	–	> 500	10 to 100	100 to 500	COc1cc(-c2cnc3cc(-c4cccnc4C#N)ccn23)cc(OC)c1C(=O)NCC(F)(F)F [compound 268, 4-[7-(2-cyano-3-pyridyl)imidazo[1,2-a]pyridin-3-yl]-2,6-dimethoxy-N-(2,2,2-trifluoroethyl)benzamide]
–	–	–	10 to 100	0.01 to 10	0.01 to 10	COc1cc(-c2cnc3cc(-c4ccc(C)nn4)ccn23)cc(OC)c1C(=O)NCC(F)(F)F [compound 269, 2,6-dimethoxy-4-[7-(6-methylpyridazin-3-yl)imidazo[1,2-a]pyridin-3-yl]-N-(2,2,2-trifluoroethyl)benzamide]
–	–	–	100 to 500	10 to 100	0.01 to 10	Cn1cc(-c2ccn3c(-c4cc(F)c(C(=O)NCC(F)(F)F)c(F)c4)cnc3c2)cn1 [compound 271, 2,6-difluoro-4-[7-(1-methylpyrazol-4-yl)imidazo[1,2-a]pyridin-3-yl]-N-(2,2,2-trifluoroethyl)benzamide]
–	–	–	0.01 to 10	0.01 to 10	0.01 to 10	COc1cc(-c2cnc3cc(-c4cnn(C)c4)ccn23)cc(NC(C)C)c1C(=O)NC1CC1 [compound 277, N-cyclopropyl-2-(isopropylamino)-6-methoxy-4-[7-(1-methylpyrazol-4-yl)imidazo[1,2-a]pyridin-3-yl]benzamide]
–	–	–	10 to 100	0.01 to 10	0.01 to 10	COc1cc(-c2cnc3cc(-c4ccc(C(F)(F)F)nn4)ccn23)cc(OC(F)F)c1C(=O)NC1CC1 [compound 281, N-cyclopropyl-2-(difluoromethoxy)-6-methoxy-4-[7-[6-(trifluoromethyl)pyridazin-3-yl]imidazo[1,2-a]pyridin-3-yl]benzamide]
–	–	–	0.01 to 10	0.01 to 10	0.01 to 10	COc1cc(-c2cnc3cc(-c4ccc(C#N)nn4)ccn23)cc(OC(F)F)c1C(=O)NC1CC1 [compound 282, 4-[7-(6-cyanopyridazin-3-yl)imidazo[1,2-a]pyridin-3-yl]-N-cyclopropyl-2-(difluoromethoxy)-6-methoxy-benzamide]
–	–	–	0.01 to 10	0.01 to 10	0.01 to 10	COc1cc(-c2cnc3cc(-c4ccc(N(C)C)nn4)ccn23)cc(OC(F)F)c1C(=O)NC1CC1 [compound 283, N-cyclopropyl-2-(difluoromethoxy)-4-[7-[6-(dimethylamino)pyridazin-3-yl]imidazo[1,2-a]pyridin-3-yl]-6-methoxy-benzamide]
–	–	–	0.01 to 10	0.01 to 10	0.01 to 10	COc1cc(-c2cnc3cc(-c4ccc(N5CCOCC5)nn4)ccn23)cc(OC(F)F)c1C(=O)NC1CC1 [compound 286, N-cyclopropyl-2-(difluoromethoxy)-6-methoxy-4-[7-(6-morpholino-pyridazin-3-yl)imidazo[1,2-a]pyridin-3-yl]benzamide]
